Experimental data from PubChem BioAssay (NCI).
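Following 48 hours of exposure in 96-well plates, responses at five concentrations were used to interpolate endpoints linearly. Definition used: TGI = concentration required for complete inhibition of growth.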

Columns and labels:
Experiment in all cases: NCI tumour cell line growth inhibition, 48 h
786-0 renal = system: 786-0 renal
A498 renal = system: A498 renal
A549 NSCLC = system: A549 NSCLC
ACHN renal = system: ACHN renal
CAKI-1 renal = system: CAKI-1 renal
CCRF-CEM leukemia = system: CCRF-CEM leukemia
COLO 205 colon = system: COLO 205 colon
DLD-1 colon = system: DLD-1 colon
DMS 114 small cell lung = system: DMS 114 small cell lung
DMS 273 small cell lung = system: DMS 273 small cell lung
EKVX NSCLC = system: EKVX NSCLC
HCC-2998 colon = system: HCC-2998 colon
HCT-116 colon = system: HCT-116 colon
HCT-15 colon = system: HCT-15 colon
HL-60(TB) leukemia = system: HL-60(TB) leukemia
HOP-18 NSCLC = system: HOP-18 NSCLC
HOP-62 NSCLC = system: HOP-62 NSCLC
HOP-92 NSCLC = system: HOP-92 NSCLC
HT29 colon = system: HT29 colon
IGROV1 ovarian = system: IGROV1 ovarian
K-562 leukemia = system: K-562 leukemia
KM12 colon = system: KM12 colon
KM20L2 colon = system: KM20L2 colon
LOX IMVI melanoma = system: LOX IMVI melanoma
LXFL 529 NSCLC = system: LXFL 529 NSCLC
M14 melanoma = system: M14 melanoma
M19-MEL melanoma = system: M19-MEL melanoma
MALME-3M melanoma = system: MALME-3M melanoma
MOLT-4 leukemia = system: MOLT-4 leukemia
NCI-H226 lung = system: NCI-H226 lung
NCI-H23 lung = system: NCI-H23 lung
NCI-H460 lung = system: NCI-H460 lung
NCI-H522 lung = system: NCI-H522 lung
OVCAR-3 ovarian = system: OVCAR-3 ovarian
OVCAR-4 ovarian = system: OVCAR-4 ovarian
OVCAR-5 ovarian = system: OVCAR-5 ovarian
OVCAR-8 ovarian = system: OVCAR-8 ovarian
RPMI-8226 leukemia = system: RPMI-8226 leukemia
RXF 393 renal = system: RXF 393 renal
RXF-631 renal = system: RXF-631 renal
SF-268 CNS = system: SF-268 CNS
SF-295 CNS = system: SF-295 CNS
SF-539 CNS = system: SF-539 CNS
SK-MEL-2 melanoma = system: SK-MEL-2 melanoma
SK-MEL-28 melanoma = system: SK-MEL-28 melanoma
SK-MEL-5 melanoma = system: SK-MEL-5 melanoma
SK-OV-3 ovarian = system: SK-OV-3 ovarian
SN12C renal = system: SN12C renal
SNB-19 CNS = system: SNB-19 CNS
SNB-75 CNS = system: SNB-75 CNS
SNB-78 CNS = system: SNB-78 CNS
SR leukemia = system: SR leukemia
SW-620 colon = system: SW-620 colon
TK-10 renal = system: TK-10 renal
U251 CNS = system: U251 CNS
UACC-257 melanoma = system: UACC-257 melanoma
UACC-62 melanoma = system: UACC-62 melanoma
UO-31 renal = system: UO-31 renal
XF 498 CNS = system: XF 498 CNS

## CS(=O)(=O)OCCN1CCN(C(=O)c2cccc3c(Nc4ccc(S(N)(=O)=O)cc4)c4ccccc4nc23)CC1
786-0 renal
  TGI: > 100 µM
A498 renal
  TGI: > 100 µM
A549 NSCLC
  TGI: > 100 µM
ACHN renal
  TGI: > 100 µM
CAKI-1 renal
  TGI: > 100 µM
CCRF-CEM leukemia
  TGI: > 63 µM
COLO 205 colon
  TGI: > 82.8 µM
DLD-1 colon
  TGI: > 65.3 µM
DMS 114 small cell lung
  TGI: > 57.6 µM
DMS 273 small cell lung
  TGI: > 100 µM
EKVX NSCLC
  TGI: > 100 µM
HCC-2998 colon
  TGI: > 100 µM
HCT-116 colon
  TGI: > 57.7 µM
HCT-15 colon
  TGI: > 60.6 µM
HL-60(TB) leukemia
  TGI: > 100 µM
HOP-18 NSCLC
  TGI: > 100 µM
HOP-62 NSCLC
  TGI: > 100 µM
HOP-92 NSCLC
  TGI: > 100 µM
HT29 colon
  TGI: > 100 µM
IGROV1 ovarian
  TGI: > 100 µM
K-562 leukemia
  TGI: > 81.1 µM
KM12 colon
  TGI: > 100 µM
KM20L2 colon
  TGI: > 100 µM
LOX IMVI melanoma
  TGI: > 59.1 µM
LXFL 529 NSCLC
  TGI: > 100 µM
M14 melanoma
  TGI: > 100 µM
M19-MEL melanoma
  TGI: > 100 µM
MALME-3M melanoma
  TGI: > 100 µM
MOLT-4 leukemia
  TGI: > 100 µM
NCI-H226 lung
  TGI: > 100 µM
NCI-H23 lung
  TGI: > 100 µM
NCI-H460 lung
  TGI: > 100 µM
NCI-H522 lung
  TGI: > 100 µM
OVCAR-3 ovarian
  TGI: > 100 µM
OVCAR-4 ovarian
  TGI: > 100 µM
OVCAR-5 ovarian
  TGI: > 100 µM
OVCAR-8 ovarian
  TGI: > 100 µM
RPMI-8226 leukemia
  TGI: > 66.1 µM
RXF 393 renal
  TGI: > 100 µM
RXF-631 renal
  TGI: > 100 µM
SF-268 CNS
  TGI: > 100 µM
SF-295 CNS
  TGI: > 100 µM
SF-539 CNS
  TGI: > 100 µM
SK-MEL-2 melanoma
  TGI: > 100 µM
SK-MEL-28 melanoma
  TGI: > 100 µM
SK-MEL-5 melanoma
  TGI: > 100 µM
SK-OV-3 ovarian
  TGI: > 100 µM
SN12C renal
  TGI: > 100 µM
SNB-19 CNS
  TGI: > 72.6 µM
SNB-75 CNS
  TGI: > 100 µM
SNB-78 CNS
  TGI: > 100 µM
SR leukemia
  TGI: > 100 µM
SW-620 colon
  TGI: > 55.8 µM
TK-10 renal
  TGI: > 100 µM
U251 CNS
  TGI: > 100 µM
UACC-257 melanoma
  TGI: > 100 µM
UACC-62 melanoma
  TGI: > 100 µM
UO-31 renal
  TGI: > 100 µM
XF 498 CNS
  TGI: > 100 µM
